For this experiment, the target named is PI3Kβ (Homo sapiens (Human), UniProt P42338). As to the kind of experiment: TR-FRET enzymatic activity assay, PI3Kβ. In kind it is biochemical. As to conditions: 2× Km ATP, 2 μM PIP2, 30 minutes at 25° C., read-out: IC50-PIP-Beta. The essentials:
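Purified recombinant heterodimeric PI3Kβ; PIP3 formation read by TR-FRET as competition with fluorescent tracer for GRP-1 PH domain binding. Compounds incubated 30 min at 25 °C.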
A general note: Time-resolved FRET reads energy transfer from a long-lived donor to a nearby acceptor.

Chain of PI3Kβ (P42338 whole entry, the tested form may be a part): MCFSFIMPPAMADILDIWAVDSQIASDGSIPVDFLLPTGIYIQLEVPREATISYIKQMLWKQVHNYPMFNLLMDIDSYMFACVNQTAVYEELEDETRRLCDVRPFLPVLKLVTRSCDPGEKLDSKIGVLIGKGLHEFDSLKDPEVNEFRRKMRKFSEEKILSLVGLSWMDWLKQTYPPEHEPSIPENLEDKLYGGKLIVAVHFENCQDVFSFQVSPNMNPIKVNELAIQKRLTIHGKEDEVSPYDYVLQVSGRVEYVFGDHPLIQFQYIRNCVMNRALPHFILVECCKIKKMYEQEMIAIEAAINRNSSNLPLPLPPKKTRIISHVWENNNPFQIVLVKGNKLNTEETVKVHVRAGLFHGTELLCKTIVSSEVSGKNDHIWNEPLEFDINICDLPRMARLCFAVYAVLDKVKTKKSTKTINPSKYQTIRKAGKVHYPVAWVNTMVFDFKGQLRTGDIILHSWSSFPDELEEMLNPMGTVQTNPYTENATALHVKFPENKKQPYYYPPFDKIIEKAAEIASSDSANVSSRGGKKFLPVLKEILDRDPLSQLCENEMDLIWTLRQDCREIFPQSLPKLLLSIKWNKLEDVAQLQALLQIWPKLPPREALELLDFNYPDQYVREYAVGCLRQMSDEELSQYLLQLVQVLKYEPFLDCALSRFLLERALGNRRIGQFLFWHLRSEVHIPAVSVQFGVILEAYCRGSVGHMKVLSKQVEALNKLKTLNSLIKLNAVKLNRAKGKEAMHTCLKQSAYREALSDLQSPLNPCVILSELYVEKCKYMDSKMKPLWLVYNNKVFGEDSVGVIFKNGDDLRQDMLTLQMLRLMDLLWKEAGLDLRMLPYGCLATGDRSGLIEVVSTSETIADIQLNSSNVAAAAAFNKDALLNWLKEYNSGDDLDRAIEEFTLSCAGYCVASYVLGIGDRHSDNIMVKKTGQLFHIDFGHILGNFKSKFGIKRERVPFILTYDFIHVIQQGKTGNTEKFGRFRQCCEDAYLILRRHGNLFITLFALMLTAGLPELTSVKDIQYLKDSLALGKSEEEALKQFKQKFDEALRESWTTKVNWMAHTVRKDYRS
Chain of PI3Kβ (P27986 whole entry partner, the tested form may be a part): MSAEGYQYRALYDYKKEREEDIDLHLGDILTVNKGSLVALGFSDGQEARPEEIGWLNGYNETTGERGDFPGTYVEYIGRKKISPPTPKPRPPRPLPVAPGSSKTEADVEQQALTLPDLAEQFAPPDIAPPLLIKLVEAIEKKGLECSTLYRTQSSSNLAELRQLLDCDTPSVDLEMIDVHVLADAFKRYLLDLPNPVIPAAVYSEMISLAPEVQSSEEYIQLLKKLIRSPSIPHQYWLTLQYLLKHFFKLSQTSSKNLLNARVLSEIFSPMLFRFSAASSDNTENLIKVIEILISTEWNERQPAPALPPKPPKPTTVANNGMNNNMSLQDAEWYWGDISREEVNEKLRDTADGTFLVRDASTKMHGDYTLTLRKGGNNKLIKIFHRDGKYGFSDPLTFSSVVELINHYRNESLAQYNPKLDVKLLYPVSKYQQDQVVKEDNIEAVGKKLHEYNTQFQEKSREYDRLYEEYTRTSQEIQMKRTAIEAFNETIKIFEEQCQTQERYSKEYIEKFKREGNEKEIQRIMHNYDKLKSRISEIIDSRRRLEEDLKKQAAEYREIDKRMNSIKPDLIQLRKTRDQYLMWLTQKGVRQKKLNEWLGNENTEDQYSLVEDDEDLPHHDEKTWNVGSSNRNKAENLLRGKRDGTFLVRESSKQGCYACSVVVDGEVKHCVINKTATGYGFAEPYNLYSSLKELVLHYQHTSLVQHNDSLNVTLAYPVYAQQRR

Broadly, the IC50 is the concentration at which inhibition is half-maximal. For `Cc1nc2c(-c3nnc[nH]3)cc(-c3ccncc3)cc2n1-c1ccnc2c(F)ccc(F)c12` [Example 28, 5,8-difluoro-4-[2-methyl-6-pyridin-4-yl-4-(4H-1,2,4-triazol-3-yl)benzimidazol-1-yl]quinoline], the IC50 is 0.006 µM.
The value for `N#Cc1cc(-c2cc(-c3nnc[nH]3)c3ncn(-c4cc(N5CCNCC5)nc5ccccc45)c3c2)ccn1` [Example 167, 4-(1-(2-(piperazin-1-yl)quinolin-4-yl)-4-(4H-1,2,4-triazol-3-yl)-1H-benzo[d]imidazol-6-yl)picolinonitrile] was 0.01 µM; that for `Cc1nnc(-c2cc(-c3ccncc3)cc3c2nc(C)n3-c2ccnc3c(Cl)cccc23)[nH]1` [Example 35, 8-chloro-4-[2-methyl-4-(5-methyl-4H-1,2,4-triazol-3-yl)-6-pyridin-4-ylbenzimidazol-1-yl]quinoline] was 0.022 µM.
The value for `Cc1nc2c(-c3nnc[nH]3)cc(-c3ccnc(C#N)c3)cc2n1-c1ccnc2c(Cl)ccc(F)c12` (single isomer, unassigned) [Example 136, 4-(1-(8-chloro-5-fluoroquinolin-4-yl)-2-methyl-4-(4H-1,2,4-triazol-3-yl)-1H-benzo[d]imidazol-6-yl)picolinonitrile] was 0.22 µM; that for `Cc1nc2c(C(N)=O)cc(-c3ccnc(N)c3F)cc2n1-c1ccnc2c(F)ccc(F)c12` [Example 26, 6-(2-amino-3-fluoropyridin-4-yl)-1-(5,8-difluoroquinolin-4-yl)-2-methyl-1H-benzo[d]imidazole-4-carboxamide] was 0.013 µM; that for `Cc1nnc(-c2cc(-c3ccnc(C#N)c3)cc3c2nc(C)n3-c2ccnc3c(Cl)ccc(F)c23)[nH]1` [Example 150, 4-(1-(8-chloro-5-fluoroquinolin-4-yl)-2-methyl-4-(5-methyl-4H-1,2,4-triazol-3-yl)-1H-benzo[d]imidazol-6-yl)picolinonitrile] was 0.013 µM.
The value for `Cc1nc2c(-c3nnc[nH]3)cc(-c3ccnc(C#N)c3)cc2n1-c1ccnc2c(F)ccc(Cl)c12` (single isomer, unassigned) [Example 123, 4-(1-(5-chloro-8-fluoroquinolin-4-yl)-2-methyl-4-(4H-1,2,4-triazol-3-yl)-1H-benzo[d]imidazol-6-yl)picolinonitrile] was 0.008 µM.
As for `Cc1nc2c(-c3nnc[nH]3)cc(-c3ccnc(C#N)c3)cc2n1-c1ccnc2cccc(Cl)c12` [Example 146, 4-(1-(5-chloroquinolin-4-yl)-2-methyl-4-(4H-1,2,4-triazol-3-yl)-1H-benzo[d]imidazol-6-yl)picolinonitrile], the IC50 was 0.2 µM.
The value for `CCCc1nc2c(-c3nnc[nH]3)cc(-c3ccnc(N)c3F)cc2n1-c1ccnc2c(F)cccc12` [Example 87, 3-fluoro-4-[3-(8-fluoroquinolin-4-yl)-2-propyl-7-(4H-1,2,4-triazol-3-yl)benzimidazol-5-yl]pyridin-2-amine] was 0.012 µM; that for `Cc1nc2c(-c3nnc[nH]3)cc(-c3ccnc(N)c3)cc2n1-c1ccnc2c(F)ccc(F)c12` (single isomer, unassigned) [Example 104, 4-(1-(5,8-difluoroquinolin-4-yl)-2-methyl-4-(4H-1,2,4-triazol-3-yl)-1H-benzo[d]imidazol-6-yl)pyridin-2-amine] was 0.009 µM; that for `Cc1nc2c(-c3nnc[nH]3)cc(-c3cc(N)nc(N)n3)cc2n1-c1ccnc2c(Cl)cccc12` [Example 57, 6-[3-(8-chloroquinolin-4-yl)-2-methyl-7-(4H-1,2,4-triazol-3-yl)benzimidazol-5-yl]pyrimidine-2,4-diamine] was 0.29 µM.
Turning to `Cc1nc2c(-c3nnc[nH]3)cc(-c3ccncc3F)cc2n1-c1ccnc2c(Cl)cccc12` (single isomer, unassigned) [Example 138, 8-chloro-4-(6-(3-fluoropyridin-4-yl)-2-methyl-4-(4H-1,2,4-triazol-3-yl)-1H-benzo[d]imidazol-1-yl)quinoline], the IC50 stood at 0.099 µM.
For the compound `Nc1cc(-c2cc(-c3nnc[nH]3)c3nc(C4CC4)n(-c4ccnc5c(F)cccc45)c3c2)ccn1` [Example 60, 4-[2-cyclopropyl-3-(8-fluoroquinolin-4-yl)-7-(4H-1,2,4-triazol-3-yl)benzimidazol-5-yl]pyridin-2-amine], the IC50 came to 0.42 µM.
The value for `Nc1nccc(-c2ccc3ncn(-c4cc(N5CCNCC5)nc5ccccc45)c3c2)c1F` [Example 163, 3-fluoro-4-(1-(2-(piperazin-1-yl)quinolin-4-yl)-1H-benzo[d]imidazol-6-yl)pyridin-2-amine] was 0.12 µM; that for `NC(=O)c1cc(-c2ccnc(N)c2F)cc2c1nc(C1CC1)n2-c1ccnc2c(Cl)ccc(F)c12` [Example 25] was 0.006 µM.
The value for `Cc1nc2c(-c3nnc[nH]3)cc(-c3ccnc(N)c3F)cc2n1-c1ccnc2c(F)ccc(F)c12` (single isomer, unassigned) [Example 105, 4-[3-(5,8-difluoroquinolin-4-yl)-2-methyl-7-(4H-1,2,4-triazol-3-yl)benzimidazol-5-yl]-3-fluoropyridin-2-amine] was 1.4 µM.
For the compound `Cc1nc2c(C(N)=O)cc(-c3ccnc(N)c3)cc2n1-c1ccnc2c(Cl)cccc12` [Example 23, 6-(2-aminopyridin-4-yl)-1-(8-chloroquinolin-4-yl)-2-methyl-1H-benzo[d]imidazole-4-carboxamide], the IC50 was found to be 0.096 µM.
For the compound `Fc1nccc(-c2cc(-c3nnc[nH]3)c3ncn(-c4ccnc5c(F)ccc(F)c45)c3c2)c1F` [Example 47, 4-[6-(2,3-difluoropyridin-4-yl)-4-(4H-1,2,4-triazol-3-yl)benzimidazol-1-yl]-5,8-difluoroquinoline], the IC50 is 0.046 µM.
The value for `Cc1nc2c(-c3nnc[nH]3)cc(-c3ccnc(N)n3)cc2n1-c1ccnc2c(Cl)cccc12` [Example 56, 4-[3-(8-chloroquinolin-4-yl)-2-methyl-7-(4H-1,2,4-triazol-3-yl)benzimidazol-5-yl]pyrimidin-2-amine] was 0.009 µM; that for `Cc1nc2c(-c3nnc[nH]3)cc(-c3ccnc(N)c3F)cc2n1-c1c(Cl)cnc2c(F)cccc12` (single isomer, unassigned) [Example 108, 4-[3-(3-chloro-8-fluoroquinolin-4-yl)-2-methyl-7-(4H-1,2,4-triazol-3-yl)benzimidazol-5-yl]-3-fluoropyridin-2-amine] was 0.81 µM.
Turning to `Cc1nc2c(-c3nnc[nH]3)cc(-c3ccnc(Cl)c3)cc2n1-c1ccnc2c(F)ccc(F)c12` [Example 158, 4-(6-(2-chloropyridin-4-yl)-2-methyl-4-(4H-1,2,4-triazol-3-yl)-1H-benzo[d]imidazol-1-yl)-5,8-difluoroquinoline], the IC50 worked out at 0.007 µM.
For `CCc1nc2c(-c3nnc[nH]3)cc(-c3ccnc(N)c3)cc2n1-c1ccnc2cccc(F)c12` [Example 54, 4-[2-ethyl-3-(5-fluoroquinolin-4-yl)-7-(4H-1,2,4-triazol-3-yl)benzimidazol-5-yl]pyridin-2-amine], the IC50 stood at 0.036 µM.
The value for `Cc1nc2c(-c3nnc[nH]3)cc(-c3ccnc(C#N)c3)cc2n1-c1ccnc2c(Cl)ccc(F)c12` (single isomer, unassigned) [Example 135, 4-(1-(8-chloro-5-fluoroquinolin-4-yl)-2-methyl-4-(4H-1,2,4-triazol-3-yl)-1H-benzo[d]imidazol-6-yl)picolinonitrile] was 0.004 µM; that for `CCCc1nc2c(-c3nnc[nH]3)cc(-c3ccnc(N)c3F)cc2n1-c1ccnc2c(F)ccc(F)c12` [Example 78, 4-[3-(5,8-difluoroquinolin-4-yl)-2-propyl-7-(4H-1,2,4-triazol-3-yl)benzimidazol-5-yl]-3-fluoropyridin-2-amine] was 0.005 µM; that for `Cc1nnc(-c2cc(-c3ccnc(N)c3F)cc3c2nc(C)n3-c2ccnc3c(Cl)ccc(F)c23)[nH]1` (single isomer, unassigned) [Example 111, 4-[3-(8-chloro-5-fluoroquinolin-4-yl)-2-methyl-7-(5-methyl-4H-1,2,4-triazol-3-yl)benzimidazol-5-yl]-3-fluoropyridin-2-amine] was 2.5 µM.
The value for `Cc1nc2c(-c3nnc[nH]3)cc(-c3ccnc(C#N)c3)cc2n1-c1ccnc2c(Cl)ccc(Cl)c12` [Example 145, 4-(1-(5,8-dichloroquinolin-4-yl)-2-methyl-4-(4H-1,2,4-triazol-3-yl)-1H-benzo[d]imidazol-6-yl)picolinonitrile] was 0.002 µM; that for `Cc1c(-c2cc(-c3nnc[nH]3)c3nc(C)n(-c4ccnc5c(F)ccc(F)c45)c3c2)ccnc1F` [Example 46, 5,8-difluoro-4-[6-(2-fluoro-3-methylpyridin-4-yl)-2-methyl-4-(4H-1,2,4-triazol-3-yl)benzimidazol-1-yl]quinoline] was 1.1 µM; that for `Nc1nccc(-c2cc(-c3nnc[nH]3)c3ncn(-c4cc(N5CCNCC5)nc5ccccc45)c3c2)c1F` [Example 162, 3-fluoro-4-(1-(2-(piperazin-1-yl)quinolin-4-yl)-4-(4H-1,2,4-triazol-3-yl)-1H-benzo[d]imidazol-6-yl)pyridin-2-amine] was 0.01 µM.
Consider `Cc1nc2c(C(=O)O)cc(-c3ncnc4[nH]cnc34)cc2n1-c1ccnc2c(Cl)cccc12` [Example 3], for which the concentration for half-maximal inhibition (IC50) turned out to be 2.8 µM.
The value for `Cc1nc2c(C(N)=O)cc(-c3ccnc(N)c3)cc2n1-c1ccnc2c(Cl)ccc(F)c12` [Example 18, 6-(2-aminopyridin-4-yl)-1-(8-chloro-5-fluoroquinolin-4-yl)-2-methylbenzimidazole-4-carboxamide] was 0.023 µM; that for `Nc1cc(-c2cc(-c3nnc[nH]3)c3nc(CC4CC4)n(-c4ccnc5c(F)ccc(F)c45)c3c2)ccn1` [Example 71, 4-[2-(cyclopropylmethyl)-3-(5,8-difluoroquinolin-4-yl)-7-(4H-1,2,4-triazol-3-yl)benzimidazol-5-yl]pyridin-2-amine] was 0.013 µM.
The value for `Cc1nnc(-c2cc(-c3ccnc(N)c3)cc3c2nc(C(C)C)n3-c2ccnc3c(Cl)ccc(F)c23)[nH]1` [Example 66, 4-[3-(8-chloro-5-fluoroquinolin-4-yl)-7-(5-methyl-4H-1,2,4-triazol-3-yl)-2-propan-2-ylbenzimidazol-5-yl]pyridin-2-amine] was 0.14 µM.

The values above are taken from US10227350B2 (Gilead Sciences, Inc., priority 2016, dated 2019).
